The text below walks through data of paper PMC8386105, “A mechanism-inspired UDP-N-acetylglucosamine pyrophosphorylase inhibitor” (RSC Chemical Biology, 2020).

For assay [1], the target named is T1, UDP-N-acetylglucosamine pyrophosphorylase (AfUAP1) (Aspergillus fumigatus, UniProt Q4WAR0).
T1 construct: gene AFUA_7G02180
T1 sequence (Q4WAR0 1-509): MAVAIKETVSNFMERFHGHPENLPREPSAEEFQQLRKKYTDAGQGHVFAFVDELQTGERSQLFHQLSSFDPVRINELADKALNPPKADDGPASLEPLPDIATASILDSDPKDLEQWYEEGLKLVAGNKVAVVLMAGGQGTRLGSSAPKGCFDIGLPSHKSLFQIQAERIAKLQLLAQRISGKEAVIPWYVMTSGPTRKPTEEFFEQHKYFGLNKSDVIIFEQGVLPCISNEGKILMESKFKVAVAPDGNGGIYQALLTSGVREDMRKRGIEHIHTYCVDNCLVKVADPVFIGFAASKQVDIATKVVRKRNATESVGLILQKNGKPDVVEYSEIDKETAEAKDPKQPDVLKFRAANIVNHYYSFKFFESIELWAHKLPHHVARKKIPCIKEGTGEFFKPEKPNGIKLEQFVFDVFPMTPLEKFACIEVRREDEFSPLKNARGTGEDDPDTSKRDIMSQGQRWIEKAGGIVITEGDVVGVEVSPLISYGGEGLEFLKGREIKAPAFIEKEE
Briefly: HPAEC assay of UDP-GlcNAc formation by recombinant enzyme. In kind it is biochemical.

The target in assay [2] is T1, UDP-N-acetylglucosamine pyrophosphorylase (AfUAP1).

SMILES strings stand for the structures.

Consider `O=c1ccn([C@@H]2O[C@H](COP(=O)(O)CP(=O)(O)OP(=O)(O)O)[C@@H](O)[C@H]2O)c(=O)[nH]1` [compound 5, meUTP], for which the IC50 in assay [1] turned out to be 115 ± 40 µM. Consider `O=P(O)(O)OP(=O)(O)O` [pyrophosphate], for which the “X-ray crystal structure, 1.75 Å (PPi and Mg2+ soak)” value in assay [2] was “is tethered by interactions with positively charged residues, such as Arg141, Lys437 and Lys148”.

As a reminder, the IC50 is the midpoint of a concentration-inhibition curve.
